Drawing on patent US20250066395A1, “Detecting and Separating Rare Earth Metal Mixtures” (Board of Regents, The University of Texas System, priority 2023, published 2025), this text covers Soluble in water for 2 substances.

The text on this data set: We have selected water and ethyl acetate (EtOAc) for their “green solvent” properties of being safe to handle, eco-friendly, little to no hazardous waste, etc.

As to scandium, the Soluble in water result was “soluble”.
For yttrium, the Soluble in water entry is reported as “soluble”.
